Reference: BindingDB's records for doi:10.1021/acs.jmedchem.6b01751 (Queen Mary University of London, 2017)

How the values were obtained:
[1] = Inhibition of RIP1 in human U937 cells assessed as reduction in TNFalpha/QVD-Oph-induced necrosis after 24 hrs by Cell Titer-Glo luminescent cell viability assay
[2] = Inhibition of RIP1 in mouse L929 cells assessed as reduction in TNFalpha/QVD-Oph-induced necrosis after 24 hrs by Cell Titer-Glo luminescent cell viability assay

| SMILES | IC50 [1] | IC50 [2] |
| --- | --- | --- |
| CN1C(=O)[C@@H](NC(=O)c2cc(Cc3ccccc3)ccn2)COc2ccccc21 | 40 nM | – |
| CN1C(=O)[C@@H](NC(=O)c2nnc(Cc3ccccc3)o2)COc2ccccc21 | 7.9 nM | – |
| CN1C(=O)[C@@H](NC(=O)c2n[nH]c(Cc3ccccc3)n2)COc2ccccc21 | – | 1300 nM |
| CN1C(=O)[C@@H](NC(=O)c2cc(Cc3ccccc3)on2)COc2ccc(-c3n[nH]c(=O)o3)cc21 | 3.2 nM | – |
| CN1C(=O)[C@@H](NC(=O)c2cn(Cc3ccccc3)cn2)COc2ccccc21 | 6.3 nM | – |
| CC(C)Cc1cc(C(=O)N[C@H]2COc3ccccc3N(C)C2=O)no1 | 6310 nM | – |
| CC(=O)Nc1ccc2c(c1)N(C)C(=O)[C@@H](NC(=O)c1cc(Cc3ccccc3)on1)CO2 | 7.9 nM | – |
| CN1C(=O)[C@@H](NC(=O)c2cnn(Cc3ccccc3)c2)COc2ccccc21 | 631 nM | – |
| CN1C(=O)[C@@H](NC(=O)c2ncn(Cc3ccccc3)n2)COc2ccccc21 | 1.6 nM | – |
| CN1C(=O)[C@@H](NC(=O)c2cn(Cc3ccccc3)nn2)COc2ccccc21 | 25 nM | – |
| CN1C(=O)[C@@H](NC(=O)c2cc(Cc3ccccc3)on2)COc2ccc(NS(C)(=O)=O)cc21 | 13 nM | – |
| O=C(N[C@H]1CCOc2ccccc2NC1=O)c1cc(Cc2ccccc2)on1 | 631 nM | – |
| CN1C(=O)[C@@H](NC(=O)c2cc(CC3CCCCC3)on2)COc2ccccc21 | 501 nM | – |
| CN1C(=O)[C@@H](NC(=O)c2cc(Cc3ccccc3)on2)COc2ccc(-c3cc[nH]n3)cc21 | 6.3 nM | – |
| CN1C(=O)[C@@H](NC(=O)c2c[nH]c(Cc3ccccc3)n2)COc2ccccc21 | 2000 nM | – |
| CN1C(=O)[C@@H](NC(=O)c2cc(Cc3ccccc3)n(C)n2)COc2ccccc21 | 10 nM | – |
| CCN1C(=O)[C@@H](NC(=O)c2cc(Cc3ccccc3)on2)COc2ccccc21 | 7940 nM | – |
| CN1C[C@H](NC(=O)c2cc(Cc3ccccc3)on2)C(=O)N(C)c2ccccc21 | 20 nM | – |
| CCCCCc1cc(C(=O)N[C@H]2COc3ccccc3N(C)C2=O)no1 | 126 nM | – |
| CN1C(=O)[C@@H](NC(=O)c2ncc(Cc3ccccc3)o2)COc2ccccc21 | 1 nM | – |
| CN1C(=O)[C@@H](NC(=O)c2nnn(Cc3ccccc3)n2)COc2ccccc21 | 2.5 nM | – |
| COC(=O)Nc1ccc2c(c1)N(C)C(=O)[C@@H](NC(=O)c1cc(Cc3ccccc3)on1)CO2 | 10 nM | – |
| CN1C(=O)[C@@H](NC(=O)c2cccc(Cc3ccccc3)c2)COc2ccccc21 | 398 nM | – |
| CN1C(=O)[C@@H](NC(=O)c2coc(Cc3ccccc3)n2)COc2ccccc21 | 2510 nM | – |
| CN1C(=O)[C@@H](NC(=O)c2noc(Cc3ccccc3)n2)COc2ccccc21 | 5 nM | – |
